From PubChem BioAssay (NCI)
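Assay format: 96-well plates, 48-hour exposure. GI50 marks 50% less growth. TGI: total growth inhibition.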

What was measured:
Test in all cases: NCI anticancer screen, dose series, 48 h
[1] = test system: SF-268 CNS
[2] = test system: M19-MEL melanoma
[3] = test system: DMS 273 small cell lung
[4] = test system: NCI-H460 lung
[5] = test system: 786-0 renal
[6] = test system: UACC-257 melanoma
[7] = test system: SF-539 CNS
[8] = test system: UO-31 renal
[9] = test system: SNB-78 CNS
[10] = test system: DLD-1 colon
[11] = test system: T-47D breast
[12] = test system: HS 578T breast

Row | SMILES | TGI [1] [µM] | TGI [2] [µM] | TGI [3] [µM] | TGI [4] [µM] | TGI [5] [µM] | TGI [6] [µM] | TGI [7] [µM] | TGI [8] [µM] | TGI [9] [µM] | TGI [10] [µM] | GI50 [1] [µM] | GI50 [4] [µM] | GI50 [5] [µM] | GI50 [6] [µM] | GI50 [11] [µM] | TGI [11] [µM] | GI50 [12] [µM] | TGI [12] [µM] | GI50 [7] [µM] | GI50 [8] [µM]
1 | CC(=O)OC(CCC1(C)OC1COc1ccc(CCNC(=O)c2ccccc2)cc1)C(C)(C)OC(C)=O (configuration not stated) | > 100 | 69 | 24.8 | 36.7 | > 100 | 25.8 | > 100 | > 100 | > 100 | > 100 | – | – | – | – | – | – | – | – | – | –
2 | C=C(Br)N(CC)CC | > 100 | > 100 | > 100 | > 100 | > 100 | > 100 | > 100 | > 100 | > 100 | > 100 | – | – | – | – | – | – | – | – | – | –
3 | O=C(Nc1nc2ncn(CCNCc3ccccc3)c2c(=O)[nH]1)c1ccccc1 | > 100 | > 100 | > 100 | > 100 | > 100 | > 100 | > 100 | > 100 | > 100 | > 100 | – | – | – | – | – | – | – | – | – | –
4 | O=C(CC1(O)C(=O)Nc2c(Cl)cc(Cl)cc21)c1cccc2ccccc12 (configuration not stated) | 40.4 | – | 27.5 | 31.1 | 29.7 | 29.8 | 32.4 | – | 46.6 | 33 | – | – | – | – | – | – | – | – | – | –
5 | COC1OC(COCc2ccc(Cl)cc2)C(OCc2ccc(Cl)cc2)C1N=[N+]=[N-] (configuration not stated) | – | – | – | > 100 | 16.8 | > 100 | – | > 100 | > 100 | – | – | – | – | – | – | – | – | – | – | –
6 | O=[N+]([O-])c1cccc(-c2oc(C=Nc3ccccc3)c([N+](=O)[O-])c2-c2cccc([N+](=O)[O-])c2)c1 | > 100 | > 100 | > 100 | > 100 | > 100 | > 100 | > 100 | > 100 | > 100 | > 100 | – | – | – | – | – | – | – | – | – | –
7 | O=C1C2C3C=CC(C2C(=O)N1COP(=O)(O)O)C1C2C(=O)N(COP(=O)(O)O)C(=O)C2C31 (configuration not stated) | > 100 | > 100 | > 56.3 | > 59.5 | > 100 | > 100 | > 100 | > 100 | > 100 | > 75.9 | – | – | – | – | – | – | – | – | – | –
8 | CCOC(=O)C1=C(C)N(c2ccc(C)cc2)C2=C(C(=O)N(c3ccccc3)C2c2ccccc2)C1c1ccccc1 (configuration not stated) | > 25 | > 25 | > 25 | > 25 | > 25 | > 25 | > 25 | > 25 | – | > 25 | – | – | – | – | – | – | – | – | – | –
9 | COCCCNC(=O)CC(=O)NCCCOC | > 100 | > 100 | – | > 100 | > 100 | > 100 | > 100 | > 100 | > 100 | > 100 | – | – | – | – | – | – | – | – | – | –
10 | CN1CCN(c2ccc3nc(-c4ccc5nc(-c6ccc(OCCC(C)(C)C)cc6)[nH]c5c4)[nH]c3c2)CC1 | 25.4 | – | – | 3.97 | 8.33 | 38.3 | 26.1 | 41.8 | – | – | 6.58 | 2.13 | 2.7 | 20.5 | 14.2 | 41.1 | 10.5 | 37.1 | 11.5 | 21.3
